Experimental data taken from patent publication US10640430B2, “Fertilizer capsule comprising one or more cores and method of making same” (SAUDI BASIC INDUSTRIES CORPORATION, priority 2014, dated 2020).
Entries after “also recorded” stand apart in the source; their conditions may differ.

How the values were obtained:
[1] = Stability of inhibitors in extrudates in urea melt (HPLC, LCMS); assay type: physicochemical; conditions: urea melt conditions
Experimental: Representative procedure for checking the Inhibitor stability in urea melt: The extrudate (1.0 g) was added to a vial containing urea melt (3.0 g) and it was left at the same temperature for one minute. The Vial was then cooled to room temperature and diluted with 5.0 ml of water (milli-Q water). The water was decanted and the same process was repeated twice, to remove most of the urea. Finally, water (5.0 ml) was added to the extrudate and left for 4 h before submitting the samples for HPLC analysis.
Stability of inhibitors in urea melt: Extrudates containing inhibitors were tested for their stability in urea melt using HPLC and LCMS.
Extrudates containing NBTPT/DCD were dipped in urea melt in order to check the stability of the extrudates. Two types of studies were performed, 1) to check the deformation ability of extrudate in urea melt; and 2) to check the stability of inhibitors. Castor wax extrudates with and without inhibitors sustain the urea melt conditions under 5 seconds but inhibitors (NBTPT and DCD) were stable under these conditions. Bleached wheat flour containing extrudates sustained the urea melt temperature (133-135° C.). High melt waxes are taken in to consideration in order to mitigate the problem of possible deformation of wax extrudates when exposed to urea melt. The extrudates of high melt waxes were exposed to urea melt. […] The stability of NBTPT and DCD under urea melt temperature were analyzed and confirmed by HPLC and LCMS.

[2] = cited from earlier work
[3] = Thermal stability of neat NBTPT and NBTPT within a core at 133-135° C. by HPLC; assay type: physicochemical; conditions: exposed to 133-135° C. (urea melt temperature), up to 30 min
Experimental: The thermal stability of neat NBTPT and NBTPT contained within a core, as disclosed herein, can be determined by HPLC. For example, neat NBTPT or a core containing NBTPT can be exposed to 135° C. (133-135° C. is the typical temperature range of a urea melt) and can continuously be analyzed by HPLC every 5 min. Such data will determine how whether the NBTPT has better thermal stability when contained within a core, as compared to neat NBTPT.
The thermal stability of neat NBTPT and NBTPT within a core was determined by HPLC. The core for this example contained 58.8 wt % PoP, 39.2 wt % bleached wheat flour, and 2.0 wt % NBTPT. Both neat NBTPT and NBTPT within a core were exposed to 133-135° C., which is the typical urea melt temperature. […] The data indicates the core protects fertilizer additive materials, such as an inhibitor, from degradation during manufacturing conditions, including the expose of temperatures associated with a urea melt. The thermal stability of materials, such as an inhibitor is critical for its good performance (inhibition) in the soil. The intended function of a material, such as an inhibitor, can be lost if the material degrades when exposed to high temperatures during the manufacturing process.

[4] = Stability of NBTPT during oven drying of water containing extrudates; assay type: physicochemical; conditions: extrudates dried in oven at 120° C. overnight
Description: Optimized formulations from the DACA were successfully extruded in the pilot scale extruder in 300 g scale. 100% bleached wheat flour was also extruded with 10-20% water which was not done in DACA.

[5] = bleached wheat flour extrudate containing the inhibitor
[6] = castor wax extrudate containing the inhibitor

| SMILES | Degradation of inhibitor in HPLC [1, 5] | Degradation of inhibitor in HPLC [1, 6] | Thermal stability in the soil ([2]; hot climatic region, soil) | Thermal stability (decomposition by HPLC) ([3]; listed as Neat NBTPT) | Thermal stability (decomposition by HPLC) ([3]; listed as neat NBTPT) | Stability of NBTPT on drying [4] | Stability under acidic pH ([2]; acidic pH) |
| --- | --- | --- | --- | --- | --- | --- | --- |
| N#CN=C(N)N [DCD, dicyandiamide] | no degradation | stable; also recorded: no degradation | thermal instability | – | – | – | – |
| CCCCNP(N)(N)=S [NBTPT, N-(n-butyl) thiophosphoric triamide] | no degradation | stable; also recorded: no degradation | – | significant degradation | decomposes | stable | unstable |
